Patent US20120003298A1, “METHODS FOR INDUCING AN IMMUNE RESPONSE” (priority 2010, published 2012)

Assays:
[1] = Solubility observations in the text; settings: methanol, ethanol, dichloromethane, ethyl acetate, acetonitrile, acetone, chloroform
[2] = test system: mouse macrophage cell line Raw264.7; experiment: IL-6 and TNF-alpha secretion in Raw264.7 cells (Model 1), ELISA; format: cell-based
[3] = test system: AY-27 rat bladder cancer cell-line; experiment: Orthotopic rat bladder cancer model, intravesical instillation
MB49 cells = experiment: Mouse bladder cancer model, intravesical treatment (Experiment 24); format: in vivo; settings: Experiment 1; in Phosal 50, 50 microliters, 20 minutes; 2 h and 24 h
Experimental: A set of experiments was conducted with SC12 in various solutions, in a mouse bladder cancer model.
7-9 week old C57BU6 mice were implanted with 1×10^6 MB49 cells after 0.1% poly L lysine treatment on day 0. […] On day 11, mice were sacrificed and organs were harvested.

[4] = Intrabladder application, serum cytokines (Luminex) and histology; format: in vivo, mouse; settings: day 0, 2 hour time point; intravesical about 207 nmoles in 50 μl
Experimental: Female C57BU6 mice were anesthetized with ketamine/xylazine. The 50 microliter formulated compounds were intravesically administered for twenty minutes at each treatment. The treatment schedule and doses are in Table 35 and 36, respectively. The levels of cytokines (IL-6, IL-12, and TNF-alpha) were determined by Luminex assay. Paraffin sections were prepared and H & E staining performed.

HLA-DR+/CD20+ B cells = experiment: FACS, B cell activation in whole blood; format: cell-based, human; settings: 24 hours; 2 and 10 uM
Experimental: B-cells: HLA-DR/CD20/CD40
The FACS staining was performed according to the manufacturer's instructions. Lysis of red blood cells was performed before FACS staining in order to minimize auto-florescence. To include as many B cells and DCs in the study as possible the FACS analyses were performed on 500,000 cells in total for each staining. […] The results of the individual analysis were present as Mean Fluorescence Intensity (MFI) values, for certain activation marker in a given gate setting, represent the actual cell subset. The isotype background values have been used to set the gates so that a maximum at 2% of unspecific stained cells could be found in the positive gates.
The analysis of expression of the activation marker CD40 on B cells was made on double positive HLA-DR (MHC class II) (P4 gate) and CD20 cells (B cell marker) (P8 gate).

human PBMCs = experiment: IL-6 secretion in human PBMCs, two batches of Compound A and SC12 (Example 4); format: cell-based; settings: PBMCs, 10-1-0.1-0.01 micromolar
Experimental: PBMCs were purified from two donors and plated into 96 well plates at 2×10^5 cells/well in RPMI media including human 2% heat inactivated AB serum, glutamine, Pen-strep and β-mercaptoethanol. The cells were treated with TLR7 agonists for 24 h in 4 doses. The conditioned media was removed for ELISA analyses for IL-6, and the EC50 value determined for each compound and each batch.
All compounds were tested in four concentrations (10-1-0.1-0.01 micromolar).
Concentrations of IL-6 were determined by ELISA from R&D Systems using the Microsoft Excel software. The results were analyzed in Graph Pad Prism in order to prepare dose-response curves, and for determination of EC50 values.

[5] = test system: myeloid CD11c+/CD123− DCs; experiment: FACS, myeloid DC activation in whole blood; format: cell-based, human; settings: 24 hours; 0.1 and 0.5 uM
Experimental: The FACS analysis for donor 1 and donor 2 was made on another day than donor 3. The compound concentrations were as follows:
B cell activation: 2 and 10 uM mDC/pDC: 0.1 and 0.5 uM
The FACS analysis was used to identify whether the test compounds could induce activation of B cells, and two different subsets of dendritic cells, namely the myeloid CD11c+/CD123− DCs and the plasmacytoid CD11c−/CD123+DCs. The following markers were studied to identify the activation status of the different subsets:
The FACS staining was performed according to the manufacturer's instructions. Lysis of red blood cells was performed before FACS staining in order to minimize auto-florescence. To include as many B cells and DCs in the study as possible the FACS analyses were performed on 500,000 cells in total for each staining. A P1 gate was set only to include relevant cells on FSC vs. SSC (see FIGS. 12-15). The results of the individual analysis were present as Mean Fluorescence Intensity (MFI) values, for certain activation marker in a given gate setting, represent the actual cell subset. The isotype background values have been used to set the gates so that a maximum at 2% of unspecific stained cells could be found in the positive gates.
The analysis of myeloid DCs was based on HLA-DR+/CD11c+/CD123-cells, thus all analyzed cells was included in the HLA-DR+(P3) gate and CD11c+/CD123− (Q4) gate (see gates in FIGS. 13-15).

[6] = test system: Cutaneous Squamous Cell Carcinoma (SCC) cell lines SCL-I, SCL-II, SCC-12, SCC-13; settings: FIG. 11
Experimental: SCC cells are grown under standard conditions (10% FBS).
Time and dose dependency of effects on total cell numbers have been investigated by real-time cell analysis, which is based on continuous monitoring of electric conductance in microtiter wells (E-plates, Roche), which corresponds to the cell numbers. […] For these assays 4 cell lines may be used to obtain a representative overview on the effects on SCC cells.

COCCOc1nc(N)c2[nH]c(=O)n(Cc3ccc(C(=O)O)cc3)c2n1 [Compound 7, 4-((6-amino-2-(2-methoxyethoxy)-8-oxo-7H-purin-9(8H)-yl)methyl)benzoic acid]
solubility in common solvents [1]: not soluble in most of the common solvents

COCCOc1nc(N)c2[nH]c(=O)n(Cc3ccc(C(=O)O)cc3)c2n1 [Free pharmacophore, reference compound]
EC50 ([2]; Raw 264.7, 24 hours, 7 doses, read-out: EC 50 TNF-alpha): 707 nM

CC(C)Cn1cnc2c(N)nc3ccccc3c21 [Imiquimod, reference compound]
toxicity ([3]; intravesical, day 2 and 5): No signs of toxicity
Number of rat bladders Tumor free ([3]; of 14 per group): 5
Number of rat bladders with pT2 Tumor ([3]; of 14 per group): 9
potency as TLR7 agonist [2]: weakest induction of IL-6 and TNF-alpha
serum IL-6 and TNF-alpha (MB49 cells): under the detection levels
serum IL-12 [4]: elevated levels of IL-12
CD40 expression on B cells (MFI, words) (HLA-DR+/CD20+ B cells): increased expression in all three donors
IL-6 induction (human PBMCs): only active in inducing IL-6 at the highest concentration (10 uM)
CD80 expression in mDCs (MFI, words) [5]: weak expression of CD80 in donor 1 and 2
cell numbers, real-time cell analysis [6]: reduced cell numbers
